Assays:
[1] = test system: green foxtail; test: Test C postemergence herbicide test; assay type: in vivo, Setaria viridis
Experimental: (§1) At the same time, plants selected from these crop and weed species and also winter barley (Hordeum vulgare L.), blackgrass (Alopecurus myosuroides Huds.), canarygrass (Phalaris minor Retz.), chickweed (Stellaria media (L.) Vill.), downy bromegrass (Bromus tectorum L.), green foxtail (Setaria viridis (L.) Beauv.), Italian ryegrass (Lolium multiflorum Lam.), wheat (Triticum aestivum L.), wild oat (Avenafatua L.) and windgrass (Apera spica-venti (L.) Beauv.) were treated with postemergence applications of some of the test chemicals formulated in the same manner. Plants ranged in height from 2 to 18 cm (1- to 4-leaf stage) for postemergence treatments. Plant species in the flooded paddy test consisted of rice (Oryza sativa), smallflower umbrella sedge (Cyperus difformis L.), ducksalad (Heteranthera limosa (Sw.) Willd.) and barnyardgrass (Echinochloa crus-galli (L.) Beauv.) grown to the 2-leaf stage for testing. Treated plants and controls were maintained in a greenhouse for 12 to 14 days, after which time all species were compared to controls and visually evaluated. Plant response ratings, summarized in Table C, are based on a scale of 0 to 100 where 0 is no effect and 100 is complete control. A dash (-) response means no test result.

[2] = test system: small flower umbrella sedge; test: Test B flooded paddy test; assay type: in vivo, Cyperus difformis; conditions: 1000 g ai/ha, scale 0 to 100 (0 no effect, 100 complete control)
Method in brief: (§2)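 After treating 2-leaf paddy plants or 2–18 cm postemergence plants (1 to 4 leaves) with formulated chemical, researchers kept them in a greenhouse for 13–15 days. Effects were judged visually versus controls: 0 indicates none, 100 total control.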

[3] = test system: canarygrass; test: Test C postemergence herbicide test; assay type: in vivo, Phalaris minor
Experimental: as §1

[4] = test system: wheat; test: Test B postemergence herbicide test; assay type: in vivo, Triticum aestivum; parameters: key to Wheat plant response rating: 0 = no effect, 100 = complete control
Method in brief: (§3)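 Plants grow to 1- to 4-leaf stage (2–18 cm) for postemergence spraying, or to 2-leaf stage for the paddy test. Formulated compound is applied. Greenhouse holding lasts 13–15 days. Response is scored visually relative to controls, 0 no effect to 100 complete control; a dash means no result.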

[5] = test system: windgrass; test: Test C postemergence herbicide test; assay type: in vivo, Apera spica-venti
Experimental: as §1

[6] = test system: corn; test: Test B pre-/postemergence herbicide test; assay type: in vivo, Zea mays
Method in brief: (§4)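 Evaluation is visual, comparing treated with control plants on a scale where 0 means no effect and 100 means full control. Treatments were preemergence, or postemergence on seedlings 2–18 cm tall, and held 13–15 days in the greenhouse.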

[7] = test system: large crabgrass; test: Test B pre-/postemergence herbicide test; assay type: in vivo, Digitaria sanguinalis
Method in brief: as §4

[8] = test system: ducksalad; test: Test B flooded paddy test; assay type: in vivo, Heteranthera limosa; conditions: 1000 g ai/ha, scale 0 to 100 (0 no effect, 100 complete control)
Method in brief: as §2

[9] = test system: rice; test: Test B flooded paddy test; assay type: in vivo, Oryza sativa; conditions: 1000 g ai/ha, scale 0 to 100 (0 no effect, 100 complete control)
Method in brief: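 Each value is a visual 0–100 response rating taken against controls 13 to 15 days after treatment in the greenhouse. Plants received formulated chemical postemergence at the 1- to 4-leaf stage or, in flooded paddy, at the 2-leaf stage.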

[10] = test system: Italian ryegrass; test: Test C postemergence herbicide test; assay type: in vivo, Lolium multiflorum
Experimental: as §1

[11] = test system: barnyardgrass; test: Test B pre-/postemergence herbicide test; assay type: in vivo, Echinochloa crus-galli; conditions: for Barnyardgrass plant response rating: Postemergence, scale 0 (no effect) to 100 (complete control)
Method in brief: (§5)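 Flooded paddy rice and barnyardgrass were treated at the 2-leaf stage; upland plantings received compound either on sown seed or on 1- to 4-leaf seedlings. All were kept 13–15 days in a greenhouse and scored visually, 0–100, relative to untreated plants.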

[12] = test system: winter barley; test: Test C postemergence herbicide test; assay type: in vivo, Hordeum vulgare
Experimental: as §1

[13] = test system: blackgrass; test: Test B postemergence herbicide test; assay type: in vivo, Alopecurus myosuroides
Method in brief: as §2

[14] = test system: wild oat; test: Test C postemergence herbicide test; assay type: in vivo, Avenafatua
Experimental: as §1

[15] = test system: blackgrass; test: Test C postemergence herbicide test; assay type: in vivo, Alopecurus myosuroides
Experimental: as §1

[16] = test system: wild oat; test: Test B postemergence herbicide test; assay type: in vivo, Avena fatua
Method in brief: as §3

[17] = test system: lambsquarters; test: Test B pre-/postemergence herbicide test; assay type: in vivo, Chenopodium album
Method in brief: as §4

[18] = test system: Surinam grass; test: Test B pre-/postemergence herbicide test; assay type: in vivo, Urochloa decumbens
Method in brief: as §4

[19] = test system: cocklebur; test: Test B pre-/postemergence herbicide test; assay type: in vivo, Xanthium strumarium
Method in brief: as §5

[20] = test system: giant foxtail; test: Test B pre-/postemergence herbicide test; assay type: in vivo, Setaria faberi
Method in brief: as §4

[21] = test system: barnyardgrass; test: Test B flooded paddy test; assay type: in vivo, Echinochloa crus-galli; conditions: 1000 g ai/ha, scale 0 to 100 (0 no effect, 100 complete control)
Method in brief: as §2

[22] = test system: downy bromegrass; test: Test C postemergence herbicide test; assay type: in vivo, Bromus tectorum
Experimental: as §1

[23] = test system: pigweed; test: Test B pre-/postemergence herbicide test; assay type: in vivo, Amaranthus retroflexus
Method in brief: as §4

[24] = test system: velvetleaf; test: Test B pre-/postemergence herbicide test; assay type: in vivo, Abutilon theophrasti
Method in brief: as §4

[25] = test system: wheat; test: Test C postemergence herbicide test; assay type: in vivo, Triticum aestivum
Experimental: as §1

[26] = test system: morningglory; test: Test B pre-/postemergence herbicide test; assay type: in vivo, Ipomoea coccinea
Method in brief: as §5

[27] = Postemergence, 250 g ai/ha, scale 0 to 100, 0 no effect, 100 complete control
[28] = Postemergence, 500 g ai/ha, scale 0 to 100, 0 no effect, 100 complete control
[29] = postemergence, 125 g ai/ha, scale 0 to 100
[30] = postemergence, 62 g ai/ha, scale 0 to 100
[31] = Postemergence, 500 g ai/ha, scale 0 (no effect) to 100 (complete control)
[32] = 125 g ai/ha, 0 is no effect, 100 is complete control, preemergence
[33] = Postemergence, 500 g ai/ha, scale 0 to 100

CN(C)C(=O)c1cccc(NC(=O)c2nn(C(C)(C)C)nc2Br)c1 [Compound 429]
50: Plant response rating, Foxtail, Green [1, 29] | Plant response rating, Ryegrass, Italian [10, 29] | Blackgrass plant response rating [13, 31] | Lambsquarters plant response rating [17, 29] | Pigweed plant response rating [23, 31] | Velvetleaf plant response rating [24, 29]
35: Plant response rating, Barley, Winter ([12]; Postemergence, 125 g ai/ha, scale 0 to 100, 0 no effect, 100 complete control) | Plant response rating, Barley, Winter [12, 27] | Plant response rating, Wheat [25, 29]
65: Plant response rating, Foxtail, Green [1, 28] | Plant response rating, Oat, Wild [14, 28] | Blackgrass plant response rating [15, 33]
20: Plant response rating, Canarygrass [3, 30] | Wheat plant response rating [4, 29] | Blackgrass plant response rating [13, 29] | Surinam Grass plant response rating [18, 29]
60: Plant response rating, Canarygrass [3, 28] | Plant response rating, Windgrass [5, 28] | Ducksalad plant response rating [8] | Plant response rating, Ryegrass, Italian [10, 28] | Barnyardgrass plant response rating ([11]; 500 g ai/ha) | Plant response rating, Oat, Wild [14, 29] | Plant response rating, Blackgrass [15, 27] | Plant response rating, Blackgrass [15, 29] | Plant response rating (0 to 100 scale), Cocklebur [19, 32] | Cocklebur plant response rating [19, 29] | Velvetleaf plant response rating [24, 31]
45: Plant response rating, Ryegrass, Italian [10, 30] | Plant response rating, Oat, Wild [14, 30] | Plant response rating, Blackgrass [15, 30] | Plant response rating, Bromegrass, Downy [22, 27] | Plant response rating, Wheat [25, 28]
25: Plant response rating, Barley, Winter ([12]; postemergence, 62 g ai/ha, scale 0 to 100 (0 no effect, 100 complete control)) | Plant response rating, Wheat [25, 30]
40: Plant response rating, Foxtail, Green [1, 30] | Plant response rating, Canarygrass [3, 29] | Wheat plant response rating [4, 31] | Plant response rating, Windgrass [5, 29] | Plant response rating, Windgrass [5, 30] | Plant response rating (0 to 100 scale), Corn [6, 32] | Corn plant response rating [6, 31] | Crabgrass, Large plant response rating [7, 31] | Barley, Winter plant response rating [12, 33] | Oat, Wild plant response rating [16, 31] | Foxtail, Giant plant response rating [20, 31] | Plant response rating, Bromegrass, Downy [22, 29] | Plant response rating, Bromegrass, Downy [22, 30] | Pigweed plant response rating [23, 29]
100: Wheat plant response rating ([4]; 500 g ai/ha, scale 0 to 100, 0 no effect, 100 complete control, preemergence) | Plant response rating (0 to 100 scale), Crabgrass, Large [7, 32] | Plant response rating (0 to 100 scale), Barnyardgrass [11, 32] | Plant response rating (0 to 100 scale), Lambsquarters [17, 32] | Barnyardgrass plant response rating [21] | Plant response rating (0 to 100 scale), Pigweed [23, 32]
70: Rice plant response rating [9] | Lambsquarters plant response rating [17, 31] | Plant response rating (0 to 100 scale), Surinam Grass [18, 32] | Cocklebur plant response rating [19, 31] | Morningglory plant response rating [26, 29]
80: Plant response rating (0 to 100 scale), Velvetleaf [24, 32] | Morningglory plant response rating [26, 31]
90: Sedge, Umbrella plant response rating [2] | Plant response rating (0 to 100 scale), Foxtail, Giant [20, 32] | Plant response rating (0 to 100 scale), Morningglory [26, 32]
30: Corn plant response rating [6, 29] | Crabgrass, Large plant response rating [7, 29] | Barnyardgrass plant response rating ([11]; 125 g ai/ha) | Oat, Wild plant response rating [16, 29] | Surinam Grass plant response rating [18, 31] | Foxtail, Giant plant response rating [20, 29]
55: Plant response rating, Foxtail, Green [1, 27] | Plant response rating, Canarygrass [3, 27] | Plant response rating, Bromegrass, Downy [22, 28]
